In patent US12344610B2, “APOL1 inhibitors and methods of use” (Maze Therapeutics, Inc., priority 2022, dated 2025):
Like-named read-outs stand apart in the source and are kept apart here.

Assays:
[1] = system: HEK293 cells overexpressing APOL1 G2; assay: APOL1 G2 HEK293 cell rescue assay (reversal of cell death caused by overexpression of APOL1); format: cell-based; conditions: geometric mean of at least 2 assay runs, † = single assay run
How it was run: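 Each compound tested in duplicate wells on one plate per run, with values usually the geometric mean across at least two runs on different days, occasionally from one run only. Read-out: concentration giving half-maximal rescue of APOL1 G2 overexpression-induced death of HEK293 cells.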

[2] = system: Trypanosoma brucei Lister 427 VSG221 with APOL1 G0 recombinant protein; assay: APOL1 G0 trypanosome cell rescue assay (Example B5); format: cell-based; conditions: geometric mean of at least 2 assay runs, † = single assay run
How it was run: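 Viability read by CellTiter-Glo luminescence after 20 h co-incubation (37° C, 5% CO2) of 250 trypanosomes/well in modified HMI-9 with test compound (duplicate 11-point, 2-fold dilutions, 0.4% DMSO) and APOL1 protein, […]. Protein: mature residues 28-398, E. coli inclusion-body refolded, tag cleaved, in DDM.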

[3] = Homo sapiens, HEK293, HEK293 overexpressing APOL1 G2
[4] = Trypanosoma brucei, 20 h, read-out: APOL1 G0 Trypanosome Rescue EC50, Trypanosoma brucei Lister 427 VSG221 with APOL1 G0 recombinant protein, 20 hours, CellTiter-Glo
[5] = read-out: APOL1 G0 Trypanosome Rescue EC50, Trypanosoma brucei Lister 427 VSG221 with APOL1 G0 recombinant protein, 20 hours, CellTiter-Glo

SMILES	EC50 [1, 3] [nM]	EC50 [2, 4] [nM]	EC50 ([1]; HEK293 overexpressing APOL1 G2) [nM]	EC50 [2, 5] [nM]
Cn1c(=O)[nH]c2cc(OCCN3CCC4(CC3)C(=O)Nc3ccc(Cl)cc34)ccc21 [Compound 88, 5-chloro-1′-{2-[(1-methyl-2-oxo-2,3-dihydro-1H-1,3-benzodiazol-5-yl)oxy]ethyl}-1,2-dihydrospiro[indole-3,4′-piperidin]-2-one]	121	451		
O=C1CCc2cc(OCCN3CCC4(CC3)C(=O)Nc3ccc(Cl)cc34)ccc2N1 [Compound 82, 5-chloro-1′-{2-[(2-oxo-1,2,3,4-tetrahydroquinolin-6-yl)oxy]ethyl}-1,2-dihydrospiro[indole-3,4′-piperidin]-2-one]	72.2	254		
CS(=O)(=O)C1(c2c(F)cc(OCCN3CCC4(CC3)C(=O)Nc3ccc(C#N)cc34)cc2F)COC1 [Compound 84, 1′-{2-[3,5-difluoro-4-(3-methanesulfonyloxetan-3-yl)phenoxy]ethyl}-2-oxo-1,2-dihydrospiro[indole-3,4′-piperidine]-5-carbonitrile]	64.9	101		
O=C1CCc2cc(OCCN3CCC4(CC3)C(=O)Nc3ccc(Cl)cc34)cnc2N1[C@H]1C[C@H](O)C1 [Compound 267, 5-chloro-1′-[2-({7-oxo-8-[(trans)-3-hydroxycyclobutyl]-5,6,7,8-tetrahydro-1,8-naphthyridin-3-yl}oxy)ethyl]-1,2-dihydrospiro[indole-3,4′-piperidin]-2-one]	37.8	95.4		
C[C@]1(O)C[C@@H](n2c(=O)cnc3cc(OCCN4CCC5(CC4)C(=O)Nc4ccc(Cl)cc45)cnc32)C1 [Compound 358, 5-chloro-1′-[2-({3-oxo-4-[(cis)-3-hydroxy-3-methylcyclobutyl]-3H,4H-pyrido[2,3-b]pyrazin-7-yl}oxy)ethyl]-1,2-dihydrospiro[indole-3,4′-piperidin]-2-one]	65	62.1		
CS(=O)(=O)C1(c2ccc(OCCN3CCC4(CC3)C(=O)Nc3ccc(Cl)cc34)cc2)CC(O)C1 (stereo not drawn) [Compound 270, 5-chloro-1′-(2-{4-[(trans) or (cis)-3-hydroxy-1-methanesulfonylcyclobutyl]phenoxy}ethyl)-1,2-dihydrospiro[indole-3,4′-piperidin]-2-one]			25.6	72.5
CS(=O)(=O)c1c(F)cc(OCCN2CCC3(CC2)C(=O)Nc2ccc(Cl)cc23)cc1F [Compound 89, 5-chloro-1′-[2-(3,5-difluoro-4-methanesulfonylphenoxy)ethyl]-1,2-dihydrospiro[indole-3,4′-piperidin]-2-one]	55.7	101		
CC(O)c1ncc(OCCN2CCC3(CC2)C(=O)Nc2ccc(C#N)cc23)cc1C(F)(F)F (single isomer, unassigned) [Compound 376, 1′-[2-({6-[(1S) or (1R)-1-hydroxyethyl]-5-(trifluoromethyl)pyridin-3-yl}oxy)ethyl]-2-oxo-1,2-dihydrospiro[indole-3,4′-piperidine]-5-carbonitrile]	46.9			95.6
COC(=O)C1(S(=O)(=O)c2ccc(OCCN3CCC4(CC3)C(=O)Nc3ccc(Cl)cc34)cc2)CC1 [Compound 91, methyl 1-[4-(2-{5-chloro-2-oxo-1,2-dihydrospiro[indole-3,4′-piperidin]-1′-yl}ethoxy)benzenesulfonyl]cyclopropane-1-carboxylate]	24.5	54.6		
CC1(S(=O)(=O)c2ccc(OCCN3CCC4(CC3)C(=O)Nc3ccc(Cl)cc34)cc2)COC1 [Compound 92, 5-chloro-1′-(2-{4-[(3-methyloxetan-3-yl)sulfonyl]phenoxy}ethyl)-1,2-dihydrospiro[indole-3,4′-piperidin]-2-one]	51.5	84.4		
CS(=O)(=O)C1(c2ncc(OCCN3CCC4(CC3)C(=O)Nc3ccc(OC(F)F)cc34)cn2)CC1 [Compound 6, 5-(difluoromethoxy)-1′-(2-{[2-(1-methanesulfonylcyclopropyl)pyrimidin-5-yl]oxy}ethyl)-1,2-dihydrospiro[indole-3,4′-piperidin]-2-one]	121	381		
CS(=O)(=O)C1(c2ccc(OCCN3CCC4(CC3)C(=O)Nc3ccc(Cl)cc34)cc2)CC(O)C1 (stereo not drawn) [Compound 269, 5-chloro-1′-(2-{4-[(cis) or (trans)-3-hydroxy-1-methanesulfonylcyclobutyl]phenoxy}ethyl)-1,2-dihydrospiro[indole-3,4′-piperidin]-2-one]			102	207
O=C1Nc2ccc(Cl)cc2C12CCN(CCOc1ccc3[nH]ncc3c1)CC2 [Compound 87, 5-chloro-1′-[2-(2H-indazol-5-yloxy)ethyl]-1,2-dihydrospiro[indole-3,4′-piperidin]-2-one]	103	268		
CC(c1ncc(OCCN2CCC3(CC2)C(=O)Nc2ccc(Cl)cc23)cn1)S(C)(=O)=O (single isomer, unassigned) [Compound 3, 5-chloro-1′-[2-({2-[(1R) or (1S)-1-methanesulfonylethyl]pyrimidin-5-yl}oxy)ethyl]-1,2-dihydrospiro[indole-3,4′-piperidin]-2-one]			142	248
CC(C)N1C(=O)CCc2cc(OCCN3CCC4(CC3)C(=O)Nc3ccc(C#N)cc34)ccc21 [Compound 96, 2-oxo-1′-(2-{[2-oxo-1-(propan-2-yl)-1,2,3,4-tetrahydroquinolin-6-yl]oxy}ethyl)-1,2-dihydrospiro[indole-3,4′-piperidine]-5-carbonitrile]	50.5	122		
CS(=O)(=O)N1CCc2cc(OCCN3CCC4(CC3)C(=O)Nc3ccc(Cl)cc34)ccc2C1 [Compound 94, 5-chloro-1′-{2-[(2-methanesulfonyl-1,2,3,4-tetrahydroisoquinolin-6-yl)oxy]ethyl}-1,2-dihydrospiro[indole-3,4′-piperidin]-2-one]	140	403		
CN1C(=O)CCc2cc(OCCN3CCC4(CC3)C(=O)Nc3ccc(C#N)cc34)ccc21 [Compound 95, 1′-{2-[(1-methyl-2-oxo-1,2,3,4-tetrahydroquinolin-6-yl)oxy]ethyl}-2-oxo-1,2-dihydrospiro[indole-3,4′-piperidine]-5-carbonitrile]	246	592		
O=C1Nc2ccc(Cl)cc2C12CCN(CCOc1ccc3c(cnn3[C@H]3C[C@H](O)C3)c1)CC2 [Compound 86, 5-chloro-1′-[2-({1-[(trans)-3-hydroxycyclobutyl]-1H-indazol-5-yl}oxy)ethyl]-1,2-dihydrospiro[indole-3,4′-piperidin]-2-one]	46.5	96.4		
CC(O)c1ncc(OCCN2CCC3(CC2)C(=O)Nc2ccc(C#N)cc23)cc1C(F)(F)F (single isomer, unassigned) [Compound 377, 1′-[2-({6-(1S) or (1R)-1-hydroxyethyl]-5-(trifluoromethyl)pyridin-3-yl}oxy)ethyl]-2-oxo-1,2-dihydrospiro[indole-3,4′-piperidine]-5-carbonitrile]			85.9	205
CS(=O)(=O)C1(c2ncc(OCCN3CCC4(CC3)C(=O)Nc3ccc(C(F)F)cc34)cn2)CC1 [Compound 5, 5-(difluoromethyl)-1′-(2-{[2-(1-methanesulfonylcyclopropyl)pyrimidin-5-yl]oxy}ethyl)-1,2-dihydrospiro[indole-3,4′-piperidin]-2-one]	213	150		
O=C1Nc2ccc(Cl)cc2C12CCN(CCOc1ccc3c(cnn3[C@H]3C[C@@H](O)C3)c1)CC2 [Compound 85, 5-chloro-1′-[2-({1-[(cis)-3-hydroxycyclobutyl]-1H-indazol-5-yl}oxy)ethyl]-1,2-dihydrospiro[indole-3,4′-piperidin]-2-one]	70.3	115		
CC1(O)CN(c2ncc(OCCN3CCC4(CC3)C(=O)Nc3ccc(C(F)F)cc34)cn2)C1 [Compound 395, 5-(difluoromethyl)-1′-(2-{[2-(3-hydroxy-3-methylazetidin-1-yl)pyrimidin-5-yl]oxy}ethyl)-1,2-dihydrospiro[indole-3,4′-piperidin]-2-one]	86.8	240		
CS(=O)(=O)N(CCO)c1ccc(OCCN2CCC3(CC2)C(=O)Nc2ccc(Cl)cc23)cc1 [Compound 98, N-[4-(2-{5-chloro-2-oxo-1,2-dihydrospiro[indole-3,4′-piperidin]-1′-yl}ethoxy)phenyl]-N-(2-hydroxyethyl)methanesulfonamide]	54.4	207		
CC1(S(=O)(=O)c2ccc(OCCN3CCC4(CC3)C(=O)Nc3ccc(C#N)cc34)cc2)COC1 [Compound 93, 1′-(2-{4-[(3-methyloxetan-3-yl)sulfonyl]phenoxy}ethyl)-2-oxo-1,2-dihydrospiro[indole-3,4′-piperidine]-5-carbonitrile]	90.9	156		
CC(c1ncc(OCCN2CCC3(CC2)C(=O)Nc2ccc(Cl)cc23)cn1)S(C)(=O)=O (single isomer, unassigned) [Compound 2, 5-chloro-1′-[2-({2-[(1S) or (1R)-1-methanesulfonylethyl]pyrimidin-5-yl}oxy)ethyl]-1,2-dihydrospiro[indole-3,4′-piperidin]-2-one]	134	192		
